# Laboratory results reported in patent US11713331B2, “Benzene 1,4-bis(bisphosphonic acid)-based metal complexes, method of synthesis and applications thereof” (priority 2020, dated 2023).
# pIC50: −log10 of the molar value. Like-named read-outs stand apart in the source and are kept apart here.
# Columns and labels:
# [1] = Binding assay to hydroxyapatite (HA); conditions: 0.5 mg/mL, 20 mg HA, PBS
# Experimental: Hydroxyapatite (HA) treatment. […] The experiment was carried out for 0-12 days, in stirring at 120 rpm. […] The supernatant was centrifuged for 8 min (500 rcf) and the absorbance was measured at 231 nm. Solid samples were characterized by SEM-EDS, TGA, and PXRD.
# The experiment was carried out for 0-12 days, in constant stirring at 120 rpm. […] The supernatant was centrifuged for 8 min (500 rcf) and the absorbance was measured at 231 nm. Solid samples were characterized by SEM-EDS and PXRD.
# [2] = system: human breast cancer MDA-MB-231 cell line; format: cell-based; conditions: 0-200 μM
# Experimental: (§1) Cell Culture Methods. Media with DMEM, 5% FBS, and 1% Pen-Strep were used to incubate MDA-MB-231 cells at 37° C. with 5% CO2. The osteoblast hFOB 1.19 cell line was incubated at 34° C., 5% CO2, in 1:1 DMEM:F-12 supplemented with 0.3 mg/mL G418, and 10% FBS. Cell passages were performed weekly at 80.0% confluency. Media exchanges were carried out twice every 7 d.
# (§2) Cell treatment. […] Cells (MDA-MB-231, hFOB 1.19) were seeded in 96 well plates at a density of 2.5×10^5 cells/mL. The 96 well plates were incubated at 37° C. with 5% CO2 for 24 h. Three 96 well plates were prepared per time point (24, 48, and 72 h). […] Cells were incubated at 37° C. and 5% CO2 for 24, 48, and 72 h. Control groups were treated with media (MDA-MB-231 with DMEM, 1% Pen-Strep) and (hFOB 1.19 with 1:1 DMEM:F-12, 0.3 mg/mL G418). Cell proliferation was determined after each point time of treatment. A 10% AlamarBlue® solution was previously prepared using PBS. The media was removed from all 96 well plates and 100 μL of AlamarBlue® solution was added. The 96 well plates were incubated for 4 h (MDA-MB-231 at 37° C., 5% CO2) and (hFOB 1.19 at 34° C., 5% CO2). The fluorescence was measured at 560 nm of excitation and lambda max 590 nm of emission. […] The experiments for the % RCL were performed employing the same conditions previously mentioned for the IC50 determination. All experiments were accomplished in triplicate. The GraphPad Prism 8 vs 8.3.1 was utilized to generate the IC50 curves and to plot the % RCL graphs.
# (§3) Furthermore, the cytotoxicity of these materials was also achieved using the osteoblast-like hFOB 1.19 cell line, within work, these immortalized human cells were used to simulate the human bone microenvironment (not cancerous cells). […] Control groups were treated with media (DMEM, 1% Pen-Strep, MDA-MB-231) and (1:1 DMEM:F12, 0.3 mg/mL G418, hFOB 1.19), respectively. AlamarBlue® assay was employed to determine cell proliferation after each time point.
# as §1, with “Methods—Media” for “Methods. Media”, “CO2” for “CO2,”
# (§4) Cell seeding—Both cells were seeded in 96 well plates at a density of 2.5×10^5 cells/mL. The 96 well plates were incubated at 37° C. (MDA-MB-231) and 34° C. […] Experiments were performed in triplicate.
# (§5) (MDA-MB-231) and 34° C. […] All experiments were accomplished in triplicate.
# [3] = system: normal osteoblast-like hFOB 1.19 cell line; format: cell-based; conditions: 0-200 μM
# Experimental: as §1, §2, §3
# as §1, with “Methods—Media” for “Methods. Media”, “CO2” for “CO2,”
# as §4, §5
# [4] = after 7 days, binding curve before reported; cited from earlier work
Molecule,% Binding to HA ([1]; 0 d),% Binding to HA ([1]; 1 d),% Binding to HA ([1]; 2 d),% Binding to HA ([1]; 3 d),% Binding to HA ([1]; 4 d),"pIC50 ([2]; MDA-MB-231, 24 h of treatment)","pIC50 ([2]; MDA-MB-231, 48 h of treatment)","pIC50 ([2]; MDA-MB-231, 72 h of treatment)","pIC50 ([3]; hFOB 1.19, 24 h of treatment)","pIC50 ([3]; hFOB 1.19, 48 h of treatment)","pIC50 ([3]; hFOB 1.19, 72 h of treatment)",% Binding to HA [4]
"benzene 1,4-bis(bisphosphonic acid) [BBPA]",0%,1%,39%,54%,74%,< 3.70,< 3.70,< 3.70,< 3.70,< 3.70,< 3.70,
"NCCCC(O)(P(=O)(O)O)P(=O)(O)O [ALEN, Alendronic acid]",,,,,,,,,,,,> 95%
